Test results: patent US20200370088A1, “KIT AND METHOD FOR ANTIBIOTICS SUSCEPTIBILITY TESTING WITH THE AGAR DILUTION METHOD” ([…].R.L., priority 2019, published 2020)
≈ marks a conversion by molar mass, not a printed value.

Test system: test bacteria
Test: Agar dilution MIC test in 12-well agarized panel (FIG. 2A-E)
Assay type: cell-based
Details: for MIC: agar dilution test
Method: In alternative embodiments, the MIC in agar is determined by the steps of inoculating a suspension of the bacterium to be tested in a plurality of agarized wells with serial two-fold dilutions of antibiotic. The test bacteria are inoculated on the agarized wells. These inoculated wells are incubated at 35-37° C. overnight. The MIC is defined as the minimum antibiotic concentration that yielded complete inhibition of the bacteria on the wells. The steps are illustrated in FIG. 1 and FIGS. 2a-2e.
In alternative embodiments of methods as provided herein different bacterial strains such as Staphylococcus spp., Enterococcus spp., Enterobactariaceae and corresponding mixtures can be inoculated onto the surface of the agarized wells prepared according to Ref. (1) and containing various concentrations of antibiotic. The inoculated wells are incubated at about 35-37° C. for a fixed time, or in alternative embodiment for about 15-24 hours. Depending on the concentration of the antibiotic, bacterial growth results and is clearly visible on the wells. Generally, in the wells having the high concentration of antibiotic, the antibiotic inhibits the bacterial growth while on the wells having low antibiotic concentrations distinctly visible and typical growth is observed. The lowest antibiotic concentration which serves to inhibit the growth of the bacteria on the wells is defined as the minimal inhibitory concentration (MIC).
With particular reference to the FIGS. 2a-2e, the therein illustrated kit is a 12-well panel containing the antibiotic incorporated into an agar medium in different concentrations, i.e. 11 two-fold dilutions (0.25-256 μg/ml). The procedure used to carry out the test is the agar dilution (AD)method for the antimicrobial susceptibility testing of the antibiotic and is according to the one recommended by CLSI and EUCAST (Ref. 1-4) standards but in a simpler and less time-consuming way and with highly reproducible results.
All wells are inoculated with a standardized microbial suspension.
After incubation in thermostat (as described in the following paragraph, for example at 36±2° C. for 16-20 hours in ambient air) the result is read and interpreted.
Test Procedure • Take a panel from its envelope and leave it at room temperature for 10 min. • Prepare a suspension of the test organism using either the direct colony suspension or growth method. • Standardize the suspension to the density of a McFarland 0.5 standard. • Optimally within 15 min of preparation, dilute the adjusted suspension 1:10 in saline. • Dispense 2 μl of the inoculum solution over the agar surface (*) into each well (the final inoculums concentration should be approximately 10^4 CFU per spot). […]
At the end of the incubation period observe the growth in the wells and establish the MIC, i.e. the lowest concentration of antibiotic that inhibits visible growth.
Disregard single colonies or faint haze caused by the inoculum

SMILES: C[C@@H]1O[C@@H]1P(=O)(O)O [fosfomycin]
- MIC (48 h, FIG. 2d): 64 µg/mL (≈ 464 µM)
- growth observed in well (FIG. 2E, at 1 μg/ml): faint haze
- MIC (FIG. 2a): 0.5 µg/mL (≈ 3.62 µM)
- MIC (FIG. 2b): 16 µg/mL (≈ 116 µM)
- MIC (FIG. 2c): 2 µg/mL (≈ 14.5 µM)
